Columns and labels:
Type in all cases: cell-based, human
[1] = tested on: PHHs in the hTCS and DhTCS; assay: Nile Red staining of lipid accumulation in PHHs cultured in hTCS/DhTCS; details: normal PHHs in hTCS, lipogenic medium plus 0.5 μM OCA
Text: All-Human Triculture System. The hTCS was set up as previously described, including the medias, cell types, and expected functional performance. This protocol follows the guidelines of […] Health's ethics committee. All cells were isolated from donor tissue fully consented for research purposes by […] Health. PHHs have been designated as normal or diseased based on a histopathologic assessment of the tissue of origin by a board-certified pathologist, using the standard MASH CRN Scoring System. Formalin-fixed paraffin-embedded tissue sections were stained with H&E (FIG. 38) and Masson's Trichrome (FIG. 39) and assessed for steatosis, lobular inflammation, and hepatocyte ballooning to form the MAFLD Activity Score (NAS). Fibrosis was scored separately on a 4-point scale according to the classification as described by Kleiner et al (Kleiner et al., 2005). Tissues with a NAS of ≥4 were designated “Diseased” (n=4) while those with NAS of ≤3 were categorized as “Normal” (n=7) (Table 1). Glucose, Oleic Acid, and OCA Treatment. […] Nile Red Staining. Cells were washed with 1×DPBS (-Ca^++/-Mg^++) (Thermo Fisher) three times, and then Nile Red was added at a 1:500 dilution (Abcam). […] Nile Red staining was quantified by determining the densitometric fluorescence value (red channel) using Image J.

[2] = tested on: PHHs in the hTCS and DhTCS; assay: Albumin secretion (ELISA) by PHHs in hTCS/DhTCS; details: normal PHHs in hTCS
Description: Albumin and Urea Assays. Supernatant was collected on the indicated days for measurement of albumin and urea. Three wells or greater were designated for each condition. Samples were run in duplicate. The concentration of albumin was determined using an ELISA assay (Abcam, Cambridge, MA) and performed according to the manufacturer's instructions. Urea was measured by a colorimetric kit (Stanbio, Boerne, TX) and performed according to the manufacturer's instructions. Bicinchoninic Acid Assay (BCA). The BCA assay was performed with supernatant collected on the designated day. Three wells or greater were designated for each condition. Samples were run in duplicate. Total protein concentration was determined using a kit (Thermo Fisher, Waltham, MA) and performed according to the manufacturer's instructions. Glucose, Oleic Acid, and OCA Treatment.

[3] = tested on: PHHs cultured in the hTCS; assay: Bile canaliculi formation, CDFDA staining; details: normal PHHs in hTCS, treated medium with addition of OCA (0.5 μM)
Description: Glucose, Oleic Acid, and OCA Treatment. […] 5-(and-6)-Carboxy-2′, 7′-Dichlorofluorescein Diacetate Staining. To visualize bile canaliculi formation, cells were rinsed twice with 1×DPBS (—Ca^++/—Mg^++) (Thermo Fisher). Fresh medium plus 5 μM 5-(and-6)-Carboxy-2′, 7′-Dichlorofluorescein Diacetate (CDFDA) (Thermo Fisher) were added to the cells and incubated for 20 minutes at 37° C. Cells were then washed twice with 1×DPBS (—Ca^++/—Mg^++), and DMEM (no phenol red) (Gibco) was added to the cells. Images were taken with an EVOS FL cell imaging system (Thermo Fisher) using a 10× objective.

[4] = tested on: LGALS3 (Galectin3); assay: cells
Description: (§1) Methods: The hepatic tri-culture system, including adult primary human hepatocytes (PHHs), endothelial cells and stromal cells, was cultured with and without primary KCs, at a ratio of 1 KC:4 PHH or 1 KC:2 PHH, in a glucocorticoid-containing or -free media. […] MTX or TGF-β1 or […] (LPS) cause hepatic injury. The injury leads to lipid accumulation, lipotoxicity and cytokines are produced. These activate the KCs and the liver sinusoidal endothelial cells (LSEC). Then stromal activation and gene expressions occur, leading to liver fibrosis.
(§2) Following exposure to methotrexate (MTX; 0.1 and 1 μM; Sigma-Aldrich, St. Louis, MO) or TGF-β1 (0.1 and 10 ng/ml; Miltenyi Biotec, Gaithersburg, MD) or vehicle (DMSO; 0.1% v/v), the expression of various genes known to have a role in fibrogenic responses (e.g., LGALS3, LOX, MMP1) was determined. MTX and TGF-β1 are known fibrogenic compounds Cell health was assessed by urea production and LDH release in the medium.
(§3) The experiments were done in a 96-well format according to the details shown below. […] The hepatocytes were from an individual adult lot. The Kupffer cells (KCs) were from an individual adult lot. The seeding density of the Kupffer cells to the hepatocytes was selected to mimic healthy or inflammatory physiological levels (1:4 or 1:2 ratio). The seeding of the KCs occurred on Day 1 of the culture (meaning 24 hours post-hepatocyte plating).
(§4) All hepatocyte plating was performed using TCPM with Dex (1 μM), as above. Four hours after hepatocyte plating, TCCM was added with and without Dex (half of the cultures with Dex, half without.) The media used were those as described above. The medium exchange process was to do 50% media changes following KC plating up until the compound addition.
(§5) Thawing and plating of the hepatocytes was done according to methods as known in the art. The next day (24 hours) after plating the cells, the KCs were added in TCCM with or without Dex (0.1 μM) at a 1:4 or 1:2 ratio to hepatocytes. The next day and subsequent days, 50% volume of medium was changed each day. Starting at day 5 of culture, the compounds tested were added in the 50% medium volume and allowed to go, unchanged, through Day 8 of culture (72 hr treatment); or to 120 hr treatment times. The treatment compounds were methotrexate (0.1 and 1.0 μM) and TGF-β1 (0.1 and 10 ng/ml).
(§6) The cell harvest and analytical endpoints were done as follows. Phase contrast images were captured each day. The media samples were collected for lactate dehydrogenase (LDH) assay at the end of each treatment period (i.e., 72 or 120 hours of treatment with each compound). The results were used to assess cell health. Cell lysates were harvested for gene expression analysis. 2 wells were combined per sample. The treatment samples were analyzed in triplicate. The following genes that have a role in fibrogenic response were observed. LGALS3 (Galectin3); LOX (lysyl oxidase), MMP1 (matrix Metalloproteinase 1); Housekeeping gene (β-actin). The images in FIGS. 44 and 45 are at 200×.

[5] = tested on: LOX (lysyl oxidase); assay: cells
Description: as §1, §2, §3, §4, §5, §6

[6] = tested on: MMP1 (matrix Metalloproteinase 1); assay: cells
Description: as §1, §2, §3, §4, §5, §6

[7] = tested on: genes known to have a role in fibrogenic responses (e.g., LGALS3, LOX, MMP1); assay: Fibrogenic response gene expression overall, Example 9
Description: as §1, §2, §3, §4
Thawing and plating of the hepatocytes was done according to methods as known in the art. The next day (24 hours) after plating the cells, the KCs were added in TCCM with or without Dex (0.1 μM) at a 1:4 or 1:2 ratio to hepatocytes. […]
The cell harvest and analytical endpoints were done as follows. […] The treatment samples were analyzed in triplicate. […]

[8] = tested on: hepatic tri-cultures; assay: Cell health (morphology, urea production, LDH release), Example 9; details: TGF-β1 10 ng/ml, exposure up to 120 hr
Description: as §2, §6

[9] = tested on: SMAD-7, LOX, MMP1, LGALS3, UCHL1, HSP90B1, MMP14, PPAR-λ(gamma); assay: Gene expression time course after TGF-β exposure, Example 10; details: 10 ng/ml, no DEX
Description: (§7) A 24-well plate, all-human cell-based triculture system (hTCS) that includes cryopreserved primary human feeder cells (FCs) and primary human hepatocytes (PHHs) and KC were used. The ratios of hepocytes: KC of 1:4 and 1:2 were used. The cells were exposed to TGF-β (10 ng/ml), with NO DEX in the media. During exposure, the above genes were followed. The workflow was the same as described in Example 9.
The cells were exposed to 10 ng/ml TGF-β.
(§8) Exposure times were measured at 2, 6, 24, and 96 hours. The gene expressions SMAD-7, LOX, MMP1, LGALS3, UCHL1, HSP90B1, MMP14, PPAR-λ(gamma)) and two housekeeping genes; β-Actin (duplexed) and GAPDH were measured. Cell Health was evaluated by measuring lactate dehydrogenase (LDH), and urea production at all time points.

[10] = tested on: hTCS with KC; assay: Urea production, Example 10; details: 10 ng/ml, between 6 and 96 h
Description: as §7, §8

[11] = tested on: hTCS with KC; assay: LDH cytotoxicity, Example 10; details: 10 ng/ml, presence of Kupffer cells, after 96 hours of exposure
Description: as §7, §8

[12] = tested on: co-cultured cells at a 1:2 Kupffer cell to hepatocyte ratio; assay: Cell morphology imaging, Example 10; details: 24 hours of exposure
Description: as §7

[13] = 72 hours, with Dex, No KC, TGF-β1 0.1 ng/mL
[14] = 72 hours, with Dex, with KCs, TGF-β1 0.1 ng/mL
[15] = 72 hours, with Dex, with KCs, TGF-β1 10 ng/mL
[16] = 72 hours, without Dex, No KC, TGF-β1 0.1 ng/mL
[17] = 72 hours, without Dex, No KC, TGF-β1 10 ng/mL
[18] = 72 hours, without Dex, with KCs, TGF-β1 0.1 ng/mL
[19] = 72 hours, without Dex, with KCs, TGF-β1 10 ng/mL
[20] = 120 hours, with Dex, No KC, TGF-β1 0.1 ng/mL
[21] = 120 hours, with Dex, No KC, TGF-β1 10 ng/mL
[22] = 120 hours, with Dex, with KCs, TGF-β1 0.1 ng/mL
[23] = 120 hours, with Dex, with KCs, TGF-β1 10 ng/mL
[24] = 120 hours, without Dex, No KC, TGF-β1 0.1 ng/mL
[25] = 120 hours, without Dex, No KC, TGF-β1 10 ng/mL
[26] = 120 hours, without Dex, with KCs, TGF-β1 0.1 ng/mL
[27] = 120 hours, without Dex, with KCs, TGF-β1 10 ng/mL

## CC[C@H]1[C@@H](O)[C@@H]2[C@H](CC[C@]3(C)[C@@H]([C@H](C)CCC(=O)O)CC[C@@H]23)[C@@]2(C)CC[C@@H](O)C[C@@H]12 [OCA, 6α-ethyl-chenodeoxycholic acid]
[1]; day 7
  Nile Red staining (lipid accumulation): 134.6%±13.6
[1]; day 14, significantly less than treated only, 20160 min
  Nile Red staining (lipid accumulation): 126.1%±8.5
[2]; day 1, not significant
  albumin, treated plus OCA compared to treated only: An increase in albumin
[2]; lipogenic medium plus 0.5 μM OCA, day 7
  albumin secretion: 13,706±4,738 ng/mg total protein
[2]; lipogenic medium plus 0.5 μM OCA, day 14
  albumin levels: 2,219±400 ng/mg total protein
[3]
  bile canalicular network formation compared to untreated PHHs: appeared to increase bile canalicular network formation

## TGF-β1: transforming growth factor-β1, pro-fibrogenic cytokine used as fibrogenic reference compound
[4]; [13]
  LGALS3 fold induction Mean: 1.1 fold
[4]; 72 hours, with Dex, No KC, TGF-β1 10 ng/mL
  LGALS3 fold induction Mean: 0.8 fold
[4]; [14]
  LGALS3 fold induction Mean: 0.9 fold
[4]; [15]
  LGALS3 fold induction Mean: 0.8 fold
[4]; [16]
  LGALS3 fold induction Mean: 1.2 fold
[4]; [17]
  LGALS3 fold induction Mean: 0.5 fold
[4]; [18]
  LGALS3 fold induction Mean: 1.1 fold
[4]; [19]
  LGALS3 fold induction Mean: 0.8 fold
[4]; [20]
  LGALS3 fold induction Mean: 1.0 fold
[4]; [21]
  LGALS3 fold induction Mean: 0.8 fold
[4]; [22]
  LGALS3 fold induction Mean: 0.8 fold
[4]; [23]
  LGALS3 fold induction Mean: 0.8 fold
[4]; [24]
  LGALS3 fold induction Mean: 1.0 fold
[4]; [25]
  LGALS3 fold induction Mean: 0.4 fold
[4]; [26]
  LGALS3 fold induction Mean: 1.1 fold
[4]; [27]
  LGALS3 fold induction Mean: 0.6 fold
[5]; [13]
  LOX fold induction Mean: 1.1 fold
[5]; [14]
  LOX fold induction Mean: 1.0 fold
[5]; [15]
  LOX fold induction Mean: 1.2 fold
[5]; [16]
  LOX fold induction Mean: 1.2 fold
[5]; [17]
  LOX fold induction Mean: 1.3 fold
[5]; [18]
  LOX fold induction Mean: 1.1 fold
[5]; [19]
  LOX fold induction Mean: 1.6 fold
[5]; [20]
  LOX fold induction Mean: 0.9 fold
[5]; [21]
  LOX fold induction Mean: 1.7 fold
[5]; [22]
  LOX fold induction Mean: 1.0 fold
[5]; [23]
  LOX fold induction Mean: 1.6 fold
[5]; [24]
  LOX fold induction Mean: 1.2 fold
[5]; [25]
  LOX fold induction Mean: 2.2 fold
[5]; [26]
  LOX fold induction Mean: 1.2 fold
[5]; [27]
  LOX fold induction Mean: 2.0 fold
[6]; [13]
  MMP1 fold induction Mean: 0.9 fold
[6]; [14]
  MMP1 fold induction Mean: 1.0 fold
[6]; [15]
  MMP1 fold induction Mean: 1.3 fold
[6]; [16]
  MMP1 fold induction Mean: 1.0 fold
[6]; [17]
  MMP1 fold induction Mean: 1.2 fold
[6]; [18]
  MMP1 fold induction Mean: 1.1 fold
[6]; [19]
  MMP1 fold induction Mean: 1.2 fold
[6]; [20]
  MMP1 fold induction Mean: 1.2 fold
[6]; [21]
  MMP1 fold induction Mean: 1.1 fold
[6]; [22]
  MMP1 fold induction Mean: 1.2 fold
[6]; [23]
  MMP1 fold induction Mean: 0.1 fold
[6]; [24]
  MMP1 fold induction Mean: 1.0 fold
[6]; [25]
  MMP1 fold induction Mean: 1.1 fold
[6]; [26]
  MMP1 fold induction Mean: 1.1 fold
[6]; [27]
  MMP1 fold induction Mean: 1.7 fold
[6]; TGF-β1 10 ng/ml, presence of KCs
  MMP1 gene expression: increased MMP1 in a time-dependent manner
[7]; DEX / no DEX, with / without KCs
  culture conditions in which effects on fibrogenic genes were observed: observed in both DEX and no DEX treated groups, with or without KCs
[7]; TGF-β1 0.1 ng/ml
  gene expression: did not affect gene expression
[8]
  cell stress (hepatocellular morphology, urea production, LDH release): exhibited signs of cell stress
[9]; 24 hours of exposure, 1:2 and 1:4 ratios
  gene expression: multiple positive signals for gene expression
[9]; 96 hours exposure, almost all genes, ratios 1:4 and 1:2 Kupffer cells to hepatocytes
  gene expression compared to the controls: reduced gene expression
[10]
  urea production rate compared to vehicle alone: a decrease in the production rate
[11]
  cytotoxicity based on LDH production: cytotoxicity of the co-cultured cells was low
[12]
  cell appearance: the cells appear healthy

— patent US20260287577A1, “APPLICATIONS OF HEPATOCYTE CO-CULTURE SYSTEM” (LifeNet Health, priority 2023, published 2026)
